In US11452292B2, “Biofilm inhibitor and method of inhibiting biofilm” (NDSU Research Foundation, priority 2017, dated 2022):
Converted amounts (≈) assume the structure as drawn. “And” between values parts separate entries of the source, which are not always exact repeats. Equal values may be shown once. Read-outs that look alike come from different tables or passages of the source.

Assays:
B. subtilis = details: cited from earlier work
[1] = tested on: Cronobacter sakazakii, Serratia marcescens, and Yersinia enterocolitica; assay: Growth and biofilm assays, summary over the three pathogens
E. coli CFT073 [2] = assay: Biofilm in silicone tubing, EAA flush, ATP assay
albino rabbits = details: 0.5 ml EAA, semi-occlusive cover, intact skin, 4 hours of exposure; cited from earlier work
S. marcescens [3] = assay: Biofilm amounts, ATP assay, 24-well polystyrene plate; format: cell-based; details: Serratia marcescens, 30° C.
S. aureus = assay: Biofilm in silicone tubing, EAA flush, ATP assay; format: cell-based, Staphylococcus aureus
Excerpt: An AV Fistula Needle 17 Ga.

pseudomonads = assay: Ground beef at 10° C., counts on PSA plates; format: cell-based; details: for Different from 0% (concentrations grouping differently from untreated control, Fisher's LSD and t-test): PSA, Pseudomonas
Description: (§1) Ground beef was obtained from the NDSU Meat Lab (ag.ndsu.edu/ansc/facilities/shepperd-arena). Precautionary steps that the slaughter facility undertakes to prevent microbial contamination of muscle meat include rinses of the hot carcass with hot water and 2.5% lactic acid (Birko Corp., Henderson, Colo.). Prior to cutting the meat, cattle halves are incubated for two weeks at a temperature between 0 and 2.2° C. For this Example, meat from two animals was ground within the NDSU Meat Lab and consecutively transferred on ice to the research lab where this Experiment was conducted. Approximately 4 pound of ground meat was obtained from two independent slaughter events (FIG. 6). These two original meat samples are referred to as biological replicates throughout this study. Each biological replicate was weighed into five aliquots of 200 g that were supplemented with 0 g, 0.1 g, 0.5 g, 1 g, or 5 g of liquid EAA (Alfa Aesar, Ward Hill Mass.). […]
(§2) Meat samples were removed from the freezer and incubated at 10° C. for five days; bacterial counts were determined on days 1, 3, and 5. […]
(§3) The content of each bag was transferred into a stomacher bag and Maximum Recovery Diluent (MRD) was added to a total of 50 ml. […] The total bacterial count of each homogenate was determined by plating serial dilutions on Plate Count Agar (PCA). Pseudomonads were determined with Pseudomonas Selective Agar (PSA), lactobacilli with All Purpose Tween agar (APT), B. thermospacta with Streptomycin sulphate, Thallous Acetate and Actidione agar (STAA), and Enterobacteriaceae with Violet Red Bile Glucose agar (VRBG). […]
(§4) Each experiment was performed in a total of 8 replicates (2 biological replicates×2 technical replicates×2 plate replicates). […] Data were analyzed for each EAA concentration and selective media and expressed as CFU/g of meat or log10 CFU/g of meat. […] Average and standard errors were calculated across the two biological and two technical replicates. […]

Y. enterocolitica [4] = assay: Planktonic growth (maximal velocity of OD600) in TSB; format: cell-based, Yersinia enterocolitica; details: for IC50: Yersinia enterocolitica, Y. enterocolitica
Description: The IC50 values were calculated using […] software (Hitachi Solutions, San Bruno, Calif.).

S. enterica = details: cited from earlier work
E. coli CFT073 [5] = assay: Biofilm in silicone tubing, EAA flush, CV assay
Y. enterocolitica [6] = assay: Biofilm in silicone tubing, EAA flush, ATP assay
S. marcescens [7] = assay: Biofilm amounts, CV assay, 24-well polystyrene plate; format: cell-based; details: Serratia marcescens, 30° C.
Excerpt: (§5) Data were expressed as OD600.

C. sakazakii = assay: as above; format: cell-based; details: Cronobacter sakazakii, 37° C.
Excerpt: as §5

B. thermospacta = assay: Ground beef at 10° C., counts on STAA plates; format: cell-based, Brocothrix thermospacta; details: for Different from 0% (concentrations grouping differently from untreated control, Fisher's LSD and t-test): STAA, B. thermospacta
Description: as §1, §2, §3, §4

Enterobacteriaceae = assay: Ground beef at 10° C., counts on VRBG plates; format: cell-based; details: for Different from 0% (concentrations grouping differently from untreated control, Fisher's LSD and t-test): VRGB, Enterobacteriaceae
Description: Ground beef was obtained from the NDSU Meat Lab (ag.ndsu.edu/ansc/facilities/shepperd-arena). Precautionary steps that the slaughter facility undertakes to prevent microbial contamination of muscle meat include rinses of the hot carcass with hot water and 2.5% lactic acid (Birko Corp., Henderson, Colo.). Prior to cutting the meat, cattle halves are incubated for two weeks at a temperature between 0 and 2.2° C. For this Example, meat from two animals was ground within the NDSU Meat Lab and consecutively transferred on ice to the research lab where this Experiment was conducted. Approximately 4 pound of ground meat was obtained from two independent slaughter events (FIG. 6). These two original meat samples are referred to as biological replicates throughout this study. Each biological replicate was weighed into five aliquots of 200 g that were supplemented with 0 g, 0.1 g, 0.5 g, 1 g, or 5 g of liquid EAA (Alfa Aesar, Ward Hill Mass.). A total of six aliquots of 10 g were produced from each 200 g aliquot to allow for two technical replicates and determination of bacterial counts at three different time points during the incubation period. Aliquots were stored in Ziploc bags at −20° C.
Meat samples were removed from the freezer and incubated at 10° C. for five days; bacterial counts were determined on days 1, 3, and 5. For one initial experiment, samples were removed after 1 h of incubation at 10° C. This aliquot is not included in FIG. 6.
The content of each bag was transferred into a stomacher bag and Maximum Recovery Diluent (MRD) was added to a total of 50 ml. Meat was homogenized in a Seward Stomacher 400 Circulator (Cole Parmer, Vernon Hills, Ill.). The total bacterial count of each homogenate was determined by plating serial dilutions on Plate Count Agar (PCA). Pseudomonads were determined with Pseudomonas Selective Agar (PSA), lactobacilli with All Purpose Tween agar (APT), B. thermospacta with Streptomycin sulphate, Thallous Acetate and Actidione agar (STAA), and Enterobacteriaceae with Violet Red Bile Glucose agar (VRBG). For the composition of these media, see TABLE 7 (BD: Becton Dickinson). […]
Each experiment was performed in a total of 8 replicates (2 biological replicates×2 technical replicates×2 plate replicates). […] Data were analyzed for each EAA concentration and selective media and expressed as CFU/g of meat or log10 CFU/g of meat. […] Average and standard errors were calculated across the two biological and two technical replicates. […] For comparisons that determined statistically significant differences between the means (p-value below 0.05), Fisher's Least Significant Difference (LSD) test and a pairwise Student's t-test were performed as post hoc test to determine which of the groups were different from the others.

isolated bovine corneas = details: cited from earlier work
Y. enterocolitica [8] = assay: Biofilm amounts, ATP assay, 24-well polystyrene plate; format: cell-based, Yersinia enterocolitica; details: for IC50: Yersinia enterocolitica, Y. enterocolitica

For `CCOC(=O)CC(C)=O` [EAA, ethyl acetoacetate], the mutagenicity (B. subtilis) is given as “No mutagenicity was detected”, the IC50 ([1]; read-out: IC50 values for biofilm amounts (summary)) is given as about 1000 µg/mL (≈ 7.68 mM) and the IC50 ([1]; read-out: IC50 values, range over all experiments) is given as 310 to 5600 µg/mL (≈ 2.38 to 43 mM). For the same compound, the “reduction of growth, biofilm amounts and live bacterial cell counts” value ([1]; three pathogens, maximal reduction) was “up to 3 logs”, the “reduction in ATP content of the biofilm” value (E. coli CFT073 [2]; E. coli CFT073, 5 mg/ml EAA) was about 100% and the “percent reduction of ATP” value (E. coli CFT073 [2]; E. coli CFT073, 100 mg/ml EAA) was 98.5%. For the same compound, the skin irritation (albino rabbits) was “no indications of irritation were detected”, the IC50 (S. marcescens [3]) was 5500 µg/mL (≈ 42.3 mM) and the “percent reduction of ATP” value (S. aureus; 100 mg/ml EAA) was 75% and 76%. The “ATP assay of the biofilm at the end of the two week incubation” value (S. aureus; 100 mg/ml of EAA, repeated experiment) was “just about abolished the biofilm”, the “log reduction, pseudomonads” value (pseudomonads; 0.5% w/w EAA, 3 days at 10° C.) was 2.6 and the “Different from 0% (concentrations grouping differently from untreated control, Fisher's LSD and t-test)” value (pseudomonads; 0.5% EAA) was 0.5%. For the same compound, the “Different from 0% (concentrations grouping differently from untreated control, Fisher's LSD and t-test)” value (pseudomonads; 2.5% EAA) was 2.5%, the “log reduction of planktonic growth” value (Y. enterocolitica [4]; 25° C., 10 mg/ml EAA) was 1.7 log and the “reduction of planktonic growth, fold equivalent” value (Y. enterocolitica [4]; 25° C., 10 mg/ml EAA) was 50 fold. The “log reduction of planktonic growth” value (Y. enterocolitica [4]; 37° C., 5 mg/ml EAA) was 1.78, the “reduction of planktonic growth, fold equivalent” value (Y. enterocolitica [4]; 37° C., 5 mg/ml EAA) was 61 fold and the IC50 (Y. enterocolitica [4]; 25° C.) was 3200 µg/mL (≈ 24.6 mM). The IC50 (Y. enterocolitica [4]; 37° C.) was 2480 µg/mL (≈ 19.1 mM), the mutagenicity (S. enterica) was “No mutagenicity was detected” and the “reduction in total biofilm biomass (CV), words” value (E. coli CFT073 [5]; E. coli CFT073, 5 mg/ml of EAA) was “almost no reduction”. For the same compound, the “reduction in biofilm biomass (CV), words” value (E. coli CFT073 [5]; E. coli CFT073, 10 mg/ml EAA) was “No reduction”, the “reduction in ATP content in the biofilm” value (Y. enterocolitica [6]; 1 mg/ml EAA) was 71% and the “percent reduction of ATP” value (Y. enterocolitica [6]; 100 mg/ml EAA) was 105%. The IC50 (S. marcescens [7]) was 5600 µg/mL (≈ 43 mM), the IC50 (C. sakazakii) was 700 µg/mL (≈ 5.38 mM) and the “log reduction, Brocothrix thermospecta” value (B. thermospacta; 0.5% w/w EAA, 3 days at 10° C.) was 2.1. For the same compound, the “Different from 0% (concentrations grouping differently from untreated control, Fisher's LSD and t-test)” value (B. thermospacta; 0.5% EAA) was 0.5%, the “Different from 0% (concentrations grouping differently from untreated control, Fisher's LSD and t-test)” value (B. thermospacta; 2.5% EAA) was 2.5% and the “log reduction, Enterobacteriaceae” value (Enterobacteriaceae; 0.5% w/w EAA, 3 days at 10° C.) was 2. The “log reductions, Enterobacteriaceae” value (Enterobacteriaceae; 2.5% of EAA, 5 days at 10° C.) was “up to 3.8”, the “Different from 0% (concentrations grouping differently from untreated control, Fisher's LSD and t-test)” value (Enterobacteriaceae; 0.5% EAA) was 0.5% and the “Different from 0% (concentrations grouping differently from untreated control, Fisher's LSD and t-test)” value (Enterobacteriaceae; 2.5% EAA) was 2.5%. For the same compound, the eye irritation (isolated bovine corneas) was “moderate eye irritation that was fully reversible after seven days”, the “biofilm reduction by the ATP assay, fold equivalent” value (Y. enterocolitica [8]; 25° C., 15 mg/ml of EAA) was 200 fold and the “log ratio of biofilm reduction by the ATP assay” value (Y. enterocolitica [8]; 25° C., 15 mg/ml of EAA) was 2.3 log. For the same compound, the “biofilm amounts quantified by the ATP assay” value (Y. enterocolitica [8]; 37° C., 10 mg/ml EAA) was “abolished”, the “log reduction in biofilm amount, ATP assay” value (Y. enterocolitica [8]; 37° C., 10 mg/ml of EAA) was 2.04 and the “reduction in biofilm amount, ATP assay, fold equivalent” value (Y. enterocolitica [8]; 37° C., 10 mg/ml of EAA) was 110 fold. For the same compound, the IC50 (Y. enterocolitica [8]; 25° C.) was 2100 µg/mL (≈ 16.1 mM) and the IC50 (Y. enterocolitica [8]; 37° C.) was 4290 µg/mL (≈ 33 mM).
